Reference: patent US6956040B2, “Oxazolidinone piperazinyl derivatives as potential antimicrobials” (Ranbaxy Laboratories Limited, priority 2001, dated 2005)
Values after ≈ are worked out from the molar mass of the structure shown.

What was measured:
[1] = system: MRSA 15187; assay: MIC, agar incorporation method; assay type: cell-based, Staphylococcus aureus; details: MRSA 15187; agar incorporation
Procedure, shortened: (§1)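 Mueller Hinton agar with twofold compound dilutions (DMSO stocks); inoculum 0.5 McFarland, 10^4 CFU/spot; 18 h incubation, 24 h for MRSN work; MIC = no-growth concentration, μg/ml. Runs accepted only if standard antibiotics gave in-range MICs on ATCC reference strains.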

[2] = system: S. aureus 25923; assay: MIC, agar incorporation method; assay type: cell-based, Staphylococcus aureus; details: S. aureus 25923; agar incorporation
Procedure, shortened: as §1

[3] = system: MRSA 33; assay: MIC, agar incorporation method; assay type: cell-based, Staphylococcus aureus; details: MRSA 33; agar incorporation
Procedure, shortened: (§2)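 MIC values (μg/ml) come from plates of Mueller Hinton agar with incorporated twofold compound series, inoculated at 10^4 CFU/spot. Incubation lasts 18 h (24 h in MRSN work); results count only when standard antibiotics against ATCC strains fall within acceptable ranges.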

[4] = system: MRSA 562; assay: MIC, agar incorporation method; assay type: cell-based, Staphylococcus aureus; details: MRSA 562
Procedure, shortened: as §2

[5] = system: E. faecalis 29212; assay: MIC, agar incorporation method; assay type: cell-based, Enterococcus faecalis; details: E. faecalis 29212; agar incorporation
Procedure, shortened: as §1

[6] = system: VRE 6A; assay: MIC, agar incorporation method; assay type: cell-based, Enterococcus faecium; details: VRE 6A; agar incorporation
Procedure, shortened: as §1

[7] = system: S. pyogenes 19615; assay: MIC, agar incorporation method; assay type: cell-based, Streptococcus pyogenes; details: S. pyogenes 19615; agar incorporation
Procedure, shortened: as §1

[8] = system: S. pneum 6303; assay: MIC, agar incorporation method; assay type: cell-based, Streptococcus pneumoniae; details: S. pneum 6303; agar incorporation
Procedure, shortened: as §1

[9] = system: S. pneum AB 34; assay: MIC, agar incorporation method; assay type: cell-based, Streptococcus pneumoniae; details: S. pneum AB 34; agar incorporation
Procedure, shortened: as §2

[10] = Changes in MIC under different conditions: Agar MIC; assay type: cell-based; details: strain not given
Description: (§3) The compounds of the invention display antibacterial activity when tested by the agar incorporation method. The following minimum inhibitory concentrations (μg/ml) were obtained for representative compounds of the invention which are given below in the following tables.
(§4) Briefly, the compounds were dissolved in DMSO and doubling dilution of the compounds were incorporated into Meuller Hilton agar before solidification. Inoculum was prepared by suspending 4 to 5 colonies into 5 ml of normal saline solution and adjusting the turbidity to 0.5 Macfarland turbidity standard tables (1.5×10^8 CFU/ml), after appropriate dilutions, 10^4 CFU/spot was transfered into the surface of dried plate and incubated for 18 hours (24 hours for MRSN studies). The concentration showing no growth of the inoculated culture was recorded as the MIC. Appropriate ATCC standard strains were simultaneously tested and result recorded only when the MIC's against standard antibiotics were within the acceptable range.

[11] = Changes in MIC under different conditions: Broth MIC; assay type: cell-based; details: strain not given
[12] = system: MRSA 562; assay: In vivo activity against MRSA 562 (ED50); design: species or system Staphylococcus aureus
[13] = system: G+ve; assay: Summary of in vitro activity (MIC) against G+ve bacteria; assay type: cell-based; details: for MIC50 / MIC90: G+ve, Number 49
Description: as §3, §4

[14] = system: S. aureus; assay: Summary of in vitro activity (MIC) against S. aureus; assay type: cell-based, Staphylococcus aureus; details: S. aureus; for MIC50 / MIC90: Number 8
Description: as §3, §4

[15] = system: E. faecalis; assay: Summary of in vitro activity (MIC) against E. faecalis; assay type: cell-based, Enterococcus faecalis; details: E. faecalis; for MIC50 / MIC90: Number 7
Description: as §3, §4

[16] = system: S. pneumoniae; assay: Summary of in vitro activity (MIC) against S. pneumoniae; assay type: cell-based, Streptococcus pneumoniae; details: S. pneumoniae; for MIC50 / MIC90: Number 19
Description: as §3, §4

Row | Structure (SMILES) | MIC [1] [µg/mL] | MIC [2] [µg/mL] | MIC [3] [µg/mL] | MIC ([4]; Table 5) [µg/mL] | MIC ([4]; agar incorporation, Table 1) [µg/mL] | MIC [5] [µg/mL] | MIC [6] [µg/mL] | MIC [7] [µg/mL] | MIC [8] [µg/mL] | MIC [9] [µg/mL] | Agar MIC [10] [µg/mL] | Broth MIC +50% Sheep serum [11] [µg/mL] | Broth MIC Normal MH broth [11] [µg/mL] | ED50 (mg/kg body weight) PO [12] [mg/kg body weight] | MIC50 [13] [µg/mL] | MIC90 [13] [µg/mL] | MIC50 [14] [µg/mL] | MIC90 [14] [µg/mL] | MIC50 [15] [µg/mL] | MIC90 [15] [µg/mL] | further results
1 | CC(=O)NC[C@H]1CN(c2ccc(N3CCN(C(=O)c4ccoc4)CC3)c(F)c2)C(=O)O1 [Compound No. 08, (S)-N[[3-[3-Fluoro-4-[N-1[4-(3-furoyl)]piperazinyl]phenyl]2-oxo-5-oxazolidinyl]methyl]cetamide] | 1 (≈ 2.32 µM) | 2 (≈ 4.65 µM) | 1 (≈ 2.32 µM) | 1 (≈ 2.32 µM) | 1 (≈ 2.32 µM) | 1 (≈ 2.32 µM) | 1 (≈ 2.32 µM) | 1 (≈ 2.32 µM) | 2 (≈ 4.65 µM) | 4 (≈ 9.29 µM) | 1 | 4 | 2 | 25 | – | – | – | – | – | – | –
2 | CC(=O)NC[C@H]1CN(c2ccc(N3CCN(C(=O)c4ccc([N+](=O)[O-])s4)CC3)c(F)c2)C(=O)O1.Cl [Compound No. 29, (S)-N[[3-[3-Fluoro-4-[N-1[4-(5-nitro-2-thienoyl)]piperazinyl]-phenyl]2-oxo-5-oxazolidinyl]methyl]acetamide hydrochloride] | <0.1 | 0.25 | <0.1 | <0.1 | <0.1 | 1 | 0.5 | 1 | 1 | 1 | <0.1 | 0.5 | 0.25 | >25 | 1 | 1 | 0.064 | 0.25 | 1 | 1 | MIC50 [16]: 1 µg/mL; MIC90 [16]: 1 µg/mL
3 | CC(=O)NC[C@H]1CN(c2ccc(N3CCC(N(C)C(=O)c4ccc([N+](=O)[O-])o4)CC3)c(F)c2)C(=O)O1 [Compound No. 44] | <0.1 | 0.25 (≈ 0.497 µM) | <0.1 | <0.1 | <0.1 | 0.25 (≈ 0.497 µM) | <0.1 | 0.5 (≈ 0.993 µM) | 2 (≈ 3.97 µM) | 2 (≈ 3.97 µM) | <0.1 | 0.25 | <0.1 | >25 | 0.5 (≈ 0.993 µM) | 2 (≈ 3.97 µM) | 0.064 (≈ 0.127 µM) | 0.25 (≈ 0.497 µM) | 0.064 (≈ 0.127 µM) | 0.25 (≈ 0.497 µM) | Geometric Mean of in vitro activity (MIC) ([13]; Gram +ve): 0.31 µg/mL; Geometric Mean of in vitro activity (MIC) [14]: 0.11 µg/mL; Geometric Mean of in vitro activity (MIC) [15]: 0.11 µg/mL; Geometric Mean of in vitro activity (MIC) [16]: 0.96 µg/mL; MIC50 [16]: 1 µg/mL (≈ 1.99 µM); MIC90 [16]: 2 µg/mL (≈ 3.97 µM)
